According to US8334382B2, “Substituted biaryl piperazinyl-pyridine analogues” (Neurogen Corporation, priority 2004, dated 2012):
pIC50: −log10 of the molar value.

Biological target: T1, human capsaicin receptor (Homo sapiens, UniProt Q8NER1)
T1 construct: expressed in transfected cells; host or cells: HEK293, stably transfected with pBK-CMV construct
Assay: Calcium mobilization assay, determination of antagonist activity
Assay type: cell-based
Conditions: capsaicin at EC50; cells expressing human capsaicin receptor; Example 6
Procedure, shortened: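 HEK293 cells stably expressing full-length human TRPV1, loaded with Fluo-3 AM in KRH buffer pH 7.4, preincubated with compound (final 1-5 µM) in the dark at room temperature for 0.5-6 h, then stimulated with capsaicin at its EC50. FLIPR fluorescence gave IC50 as concentration halving the capsaicin response.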

T1 sequence (Q8NER1 whole entry): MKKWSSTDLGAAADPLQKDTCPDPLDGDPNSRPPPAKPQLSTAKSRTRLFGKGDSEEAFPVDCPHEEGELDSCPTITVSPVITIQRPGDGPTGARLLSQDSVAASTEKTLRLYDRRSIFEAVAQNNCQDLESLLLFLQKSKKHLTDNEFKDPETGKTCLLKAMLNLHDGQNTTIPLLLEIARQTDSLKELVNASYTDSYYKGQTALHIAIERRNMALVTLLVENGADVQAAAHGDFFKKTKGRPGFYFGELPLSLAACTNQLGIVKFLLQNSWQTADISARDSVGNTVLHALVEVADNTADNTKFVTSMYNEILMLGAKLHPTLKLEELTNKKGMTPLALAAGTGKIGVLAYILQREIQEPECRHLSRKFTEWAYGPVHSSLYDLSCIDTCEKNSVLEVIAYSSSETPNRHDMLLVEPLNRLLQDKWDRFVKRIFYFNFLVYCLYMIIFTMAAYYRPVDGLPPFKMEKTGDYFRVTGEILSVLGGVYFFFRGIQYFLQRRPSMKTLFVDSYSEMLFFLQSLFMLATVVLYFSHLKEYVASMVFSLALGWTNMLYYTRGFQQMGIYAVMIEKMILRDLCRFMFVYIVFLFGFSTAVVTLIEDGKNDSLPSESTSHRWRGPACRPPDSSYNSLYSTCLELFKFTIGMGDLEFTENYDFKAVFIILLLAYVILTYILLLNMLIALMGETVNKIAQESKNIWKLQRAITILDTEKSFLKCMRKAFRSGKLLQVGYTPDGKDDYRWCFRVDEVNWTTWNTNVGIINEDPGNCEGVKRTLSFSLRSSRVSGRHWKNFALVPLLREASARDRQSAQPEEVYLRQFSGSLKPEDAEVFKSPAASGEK

| pIC50 | SMILES |
| --- | --- |
| ≥ 6.00 | Cc1cc(C(N)=O)cnc1N1CCN(c2cc(-c3ccccc3)nc(N(C)C)n2)[C@H](C)C1 [Example 84, 6-[4-(2-Dimethylamino-6-phenyl-pyrimidin-4-yl)-3-(R)-methyl-piperazin-1-yl]-5-methyl-nicotinamide] |
| ≥ 6.00 | Cc1cc(C(=O)N(C)CCCN(C)C)cnc1N1CCN(c2cc(-c3ccc(F)cc3)nc(N3CCCC3C)n2)CC1 (stereo not drawn) [Example 137, N-[3-(dimethylamino)propyl]-6-{4-[6-(4-fluorophenyl)-2-(2-methylpyrrolidin-1-yl)pyrimidin-4-yl]piperazin-1-yl}-N,5-dimethylnicotinamide] |
| ≥ 6.00 | C[C@@H]1CN(c2ncc(C(=O)O)cc2Cl)CCN1c1cc(-c2ccccc2)nc(N2CCC[C@H]2CO)n1 [Example 163, 5-Chloro-6-{4-[2-(2-(S)-hydroxymethyl-pyrrolidin-1-yl)-6-phenyl-pyrimidin-4-yl]-3-(R)-methyl-piperazin-1-yl}-nicotinic acid] |
| ≥ 6.00 | Cc1cc(C(=O)O)cnc1N1CCN(c2cc(-c3ccnc(C(C)C)c3)nc(N3CCCC3C)n2)CC1 (stereo not drawn) [Example 78, 6-{4-[6-(2-Isopropyl-pyridin-4-yl)-2-(2-methyl-pyrrolidin-1-yl)-pyrimidin-4-yl]-piperazin-1-yl}-5-methyl-nicotinic acid] |
| ≥ 6.00 | CC1CCCN1c1nc(-c2ccc(F)cc2)cc(N2CCN(c3ncc(CO)cc3Cl)C[C@H]2C)n1 (stereo partly drawn) [Example 31, (5-Chloro-6-{4-[6-(4-fluoro-phenyl)-2-(2-methyl-pyrrolidin-1-yl)-pyrimidin-4-yl]-3-(R)-methyl-piperazin-1-yl}-pyridin-3-yl)-methanol] |
| ≥ 6.00 | C[C@@H]1CCCN1c1nc(-c2ccc(F)cc2)cc(N2CCN(c3ncc(CC(=O)O)cc3Cl)CC2)n1 [Example 93, (5-Chloro-6-{4-[6-(4-fluoro-phenyl)-2-(2-(R)-methyl-pyrrolidin-1-yl)-pyrimidin-4-yl]-piperazin-1-yl}-pyridin-3-yl)-acetic acid] |
| ≥ 6.00 | C[C@@H]1CN(c2ncc(C(=O)NCCO)cc2Cl)CCN1c1cc(-c2ccc(F)c(Cl)c2)nc(N2CCC[C@H]2C)n1 [Example 149, 5-Chloro-6-{4-[6-(3-chloro-4-fluoro-phenyl)-2-(2-(R)-methyl-pyrrolidin-1-yl)-pyrimidin-4-yl]-3-(R)-methyl-piperazin-1-yl}-N-(2-hydroxy-ethyl)-nicotinamide] |
| ≥ 6.00 | Cc1cc(OCCO)cnc1N1CCN(c2cc(-c3ccc(F)cc3)nc(N3CCC[C@H]3CO)n2)[C@H](C)C1 [Example 184, 2-{[6-((3R)-4-{6-(4-fluorophenyl)-2-[(2S)-2-(hydroxymethyl)pyrrolidin-1-yl]pyrimidin-4-yl}-3-methylpiperazin-1-yl)-5-methylpyridin-3-yl]oxy}ethanol] |
| ≥ 6.00 | C[C@@H]1CN(c2ncc(C(=O)O)cc2Cl)CCN1c1cc(-c2ccc(F)cc2)nc(N2CCC[C@H]2C)n1 [Example 94, 5-Chloro-6-{4-[6-(4-fluoro-phenyl)-2-(2-(R)-methyl-pyrrolidin-1-yl) - pyrimidin-4-yl]-3-(R)-methyl-piperazin-1-yl} - nicotinic acid] |
| ≥ 6.00 | NC(=O)c1cccnc1N1CCN(c2cc(-c3ccc(F)c(Cl)c3)nc(N3CCOCC3)n2)CC1 [Example 2, 2-{4-[6-(3-Chloro-4-fluoro-phenyl)-2-morpholin-4-yl-pyrimidin-4-yl]-piperazin-l-yl}-nicotinamide] |
| ≥ 6.00 | Cc1cc(C(=O)N(C)C2CCCCC2)cnc1N1CCN(c2cc(-c3ccc(F)cc3)nc(N3CCCC3C)n2)CC1 (stereo not drawn) [Example 129, N-cyclohexyl-6-{4-[6-(4-fluorophenyl)-2-(2-methylpyrrolidin-1-yl)pyrimidin-4-yl]piperazin-1-yl}-N,5-dimethylnicotinamide] |
| ≥ 6.00 | Cc1cc(CO)cnc1N1CCN(c2cc(-c3ccncc3)nc(N3CCCC3C)n2)[C@H](C)C1 (stereo partly drawn) [Example 65, (5-Methyl-6-{3-(R)-methyl-4-[2-(2-methyl-pyrrolidin-1-yl)-6-pyridin-4-yl-pyrimidin-4-yl]-piperazin-1-yl}-pyridin-3-yl)-methanol] |
| ≥ 6.00 | CC1CCCN1c1nc(-c2ccc(F)c(Cl)c2)cc(N2CCN(c3ncc(C(=O)O)cc3Cl)C[C@H]2C)n1 (stereo partly drawn) [Example 9, 5-Chloro-6-{4-[6-(3-chloro-4-fluoro-phenyl)-2-(2-methyl-pyrrolidin-1-yl)-pyrimidin-4-yl]-3-(R)-methyl-piperazin-l-yl}-nicotinic acid] |
| ≥ 6.00 | Cc1cc(CO)cnc1N1CCN(c2cc(-c3ccc(F)cc3)nc(N(C)C)n2)[C@H](C)C1 [Example 67, (6-{4-[2-Dimethylamino-6-(4-fluoro-phenyl)-pyrimidin-4-yl]-3-(R)-methyl-piperazin-1-yl}-5-methyl-pyridin-3-yl)-methanol] |
| ≥ 6.00 | Cc1cc(C(N)=O)cnc1N1CCN(c2cc(-c3ccncc3)nc(N3CCCC3C)n2)CC1 (stereo not drawn) [Example 89, 5-Methyl-6-{4-[2-(2-methyl-pyrrolidin-1-yl)-6-pyridin-4-yl-pyrimidin-4-yl]-piperazin-1-yl}-nicotinamide] |
| ≥ 6.00 | CCOC(=O)c1cnc(N2CCN(c3cc(-c4ccnc(C(C)C)c4)nc(N4CCCC4C)n3)CC2)c(C)c1 (stereo not drawn) [Example 57, 6-{4-[6-(2-Isopropyl-pyridin-4-yl)-2-(2-methyl-pyrrolidin-1-yl)-pyrimidin-4-yl]-piperazin-1-yl}-5-methyl - nicotinic acid ethyl ester] |
| ≥ 6.00 | Cc1cc(C(=O)O)cnc1N1CCN(c2cc(-c3ccncc3)nc(N3CCCC3C)n2)CC1 (stereo not drawn) [Example 77, 5-Methyl-6-{4-[2-(2-methyl-pyrrolidin-1-yl)-6-pyridin-4-yl-pyrimidin-4-yl]-piperazin-1-yl}-nicotinic acid] |
| ≥ 6.00 | CC(C)c1cc(-c2cc(N3CCN(c4ncc(CO)cc4Cl)C[C@H]3C)nc(N3CCCC3C)n2)ccn1 (stereo partly drawn) [Example 50, (5-Chloro-6-{4-[6-(2-isopropyl-pyridin-4-yl)-2-(2-methyl-pyrrolidin-1-yl)-pyrimidin-4-yl]-3-(R)-methyl-piperazin-1-yl}-pyridin-3-yl)-methanol] |
| ≥ 6.00 | CC1CCCN1c1nc(-c2ccc(F)c(Cl)c2)cc(N2CCN(c3ncc(CN)cc3Cl)CC2)n1 (stereo not drawn) [Example 12, C-(5-Chloro-6-{4-[6-(3-chloro-4-fluoro-phenyl)-2-(2-methyl-pyrrolidin-l-yl)-pyrimidin-4-yl]-piperazin-1-yl}-pyridin-3-yl)-methylamine] |
| ≥ 6.00 | Cc1cccc(-c2cc(N3CCN(c4ncc(CO)cc4C)CC3)nc(N3CCCC3C)n2)c1 (stereo not drawn) [Example 72, (5-Methyl-6-{4-[2-(2-methyl-pyrrolidin-1-yl)-6-m-tolyl-pyrimidin-4-yl]-piperazin-1-yl}-pyridin-3-yl)-methanol] |
| ≥ 6.00 | CCCN1CCN(c2nc(-c3ccc(F)c(Cl)c3)cc(N3CCN(c4ncc([N+](=O)[O-])cc4C)CC3)n2)CC1 [Example 14, 4-(3-Chloro-4-fluoro-phenyl)-6-[4-(3-methyl-5-nitro-pyridin-2-yl)-piperazin-l-yl]-2-(4-propyl-piperazin-1-yl)-pyrimidine] |
| ≥ 6.00 | CC1CCCN1c1nc(-c2ccc(F)c(Cl)c2)cc(N2CCN(c3ncc(CN(C)C)cc3Cl)CC2)n1 (stereo not drawn) [Example 19, (5-Chloro-6-{4-[6-(3-chloro-4-fluoro-phenyl)-2-(2-methyl-pyrrolidin-l-yl)-pyrimidin-4-yl]-piperazin-1-yl}-pyridin-3-ylmethyl)-dimethyl-amine] |
| ≥ 6.00 | Cc1cc(OCCN(C)C)cnc1N1CCN(c2cc(-c3ccc(F)c(Cl)c3)nc(N3CCCC3C)n2)CC1 (stereo not drawn) [Example 6, [2-(6-{4-[6-(3-Chloro-4-fluoro-phenyl)-2-(2-methyl-pyrrolidin-1-yl)-pyrimidin-4-yl]-piperazin-1-yl}-5-methyl-pyridin-3-yloxy)-ethyl]-dimethyl-amine] |
| ≥ 6.00 | Cc1cc(C(N)=O)cnc1N1CCN(c2cc(-c3ccc(F)cc3)nc(N3CCCC3C)n2)CC1 (stereo not drawn) [Example 45, 6-{4-[6-(4-Fluoro-phenyl)-2-(2-methyl-pyrrolidin-1-yl)-pyrimidin-4-yl]-piperazin-1-yl}-5-methyl-nicotinamide] |
| ≥ 6.00 | Cc1cc(C(=O)NCc2ccc(F)cc2)cnc1N1CCN(c2cc(-c3ccc(F)cc3)nc(N3CCCC3C)n2)CC1 (stereo not drawn) [Example 114, N-(4-fluorobenzyl)-6-{4-[6-(4-fluorophenyl)-2-(2-methylpyrrolidin-1-yl)pyrimidin-4-yl]piperazin-1-yl}-5-methylnicotinamide] |
| ≥ 6.00 | Cc1cc(C(=O)O)cnc1N1CCN(c2cc(-c3ccc(F)c(Cl)c3)nc(N3CCC[C@H]3C)n2)[C@H](C)C1 [Example 154, 6-{4-[6-(3-Chloro-4-fluoro-phenyl)-2-(2-(R)-methyl-pyrrolidin-1-yl)-pyrimidin-4-yl]-3-(R)-methyl-piperazin-1-yl}-5-methyl-nicotinic acid] |
| ≥ 6.00 | Cc1cc(C(=O)N2CCCCCC2)cnc1N1CCN(c2cc(-c3ccc(F)cc3)nc(N3CCCC3C)n2)CC1 (stereo not drawn) [Example 126, l-[(6-{4-[6-(4-fluorophenyl)-2-(2-methylpyrrolidin-1-yl)pyrimidin-4-yl]piperazin-1-yl}-5-methylpyridin-3-yl)carbonyl]azepane] |
| ≥ 6.00 | Cc1cc(C(=O)O)cnc1N1CCN(c2cc(-c3ccncc3)nc(N3CCCC3C)n2)[C@H](C)C1 (stereo partly drawn) [Example 70, 5-Methyl-6-{3-(R)-methyl-4-[2-(2-methyl-pyrrolidin-1-yl)-6-pyridin-4-yl-pyrimidin-4-yl]-piperazin-1-yl}-nicotinic acid] |
| ≥ 6.00 | CCOC(=O)c1cnc(N2CCN(c3cc(-c4cccc(C)c4)nc(N4CCCC4C)n3)CC2)c(C)c1 (stereo not drawn) [Example 55, 5-Methyl-6-{4-[2-(2-methyl-pyrrolidin-1-yl)-6-m-tolyl-pyrimidin-4-yl]-piperazin-1-yl}-nicotinic acid ethyl ester] |
| ≥ 6.00 | Cc1cc(C(=O)N2CCSCC2)cnc1N1CCN(c2cc(-c3ccc(F)cc3)nc(N3CCCC3C)n2)CC1 (stereo not drawn) [Example 127, 4-[(6-{4-[6-(4-fluorophenyl)-2-(2-methylpyrrolidin-1-yl)pyrimidin-4-yl]piperazin-1-yl}-5-methylpyridin-3-yl)carbonyl] thiomorpholine] |
